23 molecules from patent EP4043466B1, “PRC2 INHIBITORS” (Mirati Therapeutics, Inc., priority 2018, dated 2019) can be followed below.

One assay deals with Karpas 422 cells. Nature of the assay: Karpas 422 cell viability, CTG (Cell Titre Glo) assay. The class given is cell-based, human. The conditions noted are these: Homo sapiens; Inhibition of proliferation of Karpas 422 cells (EZH2 Y641N); viability measured Day 4, Day 7 or Day 11, time point of the tabulated values not stated. The method, then:
Karpas 422 cell line is a human B cell non-Hodgkin's lymphoma cell line established from a patient having DLBCL. This EZH2 heterozygotic cell line expresses a mutant form of EZH2 enzyme (Y641N) that increases histone H3 methylation and this mutation has been implicated in the tumorgenesis of lymphomas, such as DLBCL.
Karpas 422 cells (PHE cat no., 06101702) were cultured in RPMI medium supplemented with 20% fetal bovine serum and 1% penicillin/1% streptomycin and plated at a density of 1000 cells/90 µl/well in 96 well white assay plates. A dose response curve for compounds of the present invention was determined by adding a 10µl aliquot of stock solutions of varying concentrations of compounds to the same medium in each well, over a concentration range of 10µM using 3-fold dilutions to a final concentration of 1.5nM. The plates were incubated at 37° C for predetermined time periods, Day 4, Day 7, or Day 11, and the viability of the cells was measured using a CTG assay kit (Cell Titre Glo; Promega cat.no G7573) on Day 4 and Day 7 in accordance with the manufacturer's instructions.
For the viability assay for the Day 11 plates, the plates were subjected to centrifugation at 1100 rpm for five minutes on Day 7 and the supernatant was removed by aspiration. The cells were resuspended in 90 µl aliquot of the appropriate growth medium lacking the compound followed by addition of 10 µl of a 10X stock of the same compound at the same concentration. The viability of the Day 11 cells was measured using the CTG assay kit described above in accordance with the manufacturer's instructions. The IC50 values for each compound at each predetermined time point were calculated using Graph pad PRISM software and the results are shown in Table 15. A = ≤250 nM; B = […] - ≤500 nM; and C = >500 nM.

The target in assay [1] is purified human, His-tagged PRC2 complex (Homo sapiens, UniProt O75530+Q15910). Nature of the assay: Hot Spot HMT assay: inhibition of PRC2 enzymatic activity (transfer of tritiated methyl from SAM to core histone, filter binding). The class given is biochemical. The conditions noted are these: Inhibition of PRC2-mediated enzymatic activity; 10 nM PRC2 complex, 0.05 mg/ml core histone H3, 1 uM 3H-SAM, 1 hr at 30°C. An excerpt:
The assay uses purified human, His-tagged PRC2 complex, including N-terminal His-tagged EZH2 enzyme, N-terminal Flag-tagged embryonic ectoderm development protein (EED), N-terminal His-tagged suppressor of zeste 12 (SUZ12), N-terminal His-tagged AEBP2, and N-terminal His-tagged RbAp48. In this assay, the transfer of the tritiated methyl group from radiolabeled S-adenosyl methionine (SAM) to purified core histone protein by EZH2 is quantitated after filtration to determine the activity of the core PRC2 complex in the presence and absence of compound.
The initial starting concentration for the serial dilutions of each compound was 1.0 µM. […] SAH (S-(5-adenosyl)-L-homocysteine) was used as a positive control for assay validation.
An aliquot of each serial dilution of test compound was added to deep 384 well plate using Acoustic Technology instrument (Echo 550, LabCyte) containing reaction buffer (50 mM Tris-HCl (pH 8.)), 0.01% Brij35, 1 mM EDTA, 1 mM DTT, 1 mM PMSF and 1% DMSO), 10 nM purified PRC2 complex and 0.05 mg/ml core histone H3 in a 5 µl volume. The reaction was mixed gently and then pre-incubated for 20 min at 30°C. The enzymatic reaction was initiated by adding 1 uM S-Adenosyl-L-[methyl - ^3H]methionine and incubated for 1 hr at 30°C. After 1 hr, the reaction product was detected using a filter binding method and the amount of tritiated H3 core histone was quantitated using a scintillation counter.

Sequence of purified human, His-tagged PRC2 complex (Q15910 whole entry): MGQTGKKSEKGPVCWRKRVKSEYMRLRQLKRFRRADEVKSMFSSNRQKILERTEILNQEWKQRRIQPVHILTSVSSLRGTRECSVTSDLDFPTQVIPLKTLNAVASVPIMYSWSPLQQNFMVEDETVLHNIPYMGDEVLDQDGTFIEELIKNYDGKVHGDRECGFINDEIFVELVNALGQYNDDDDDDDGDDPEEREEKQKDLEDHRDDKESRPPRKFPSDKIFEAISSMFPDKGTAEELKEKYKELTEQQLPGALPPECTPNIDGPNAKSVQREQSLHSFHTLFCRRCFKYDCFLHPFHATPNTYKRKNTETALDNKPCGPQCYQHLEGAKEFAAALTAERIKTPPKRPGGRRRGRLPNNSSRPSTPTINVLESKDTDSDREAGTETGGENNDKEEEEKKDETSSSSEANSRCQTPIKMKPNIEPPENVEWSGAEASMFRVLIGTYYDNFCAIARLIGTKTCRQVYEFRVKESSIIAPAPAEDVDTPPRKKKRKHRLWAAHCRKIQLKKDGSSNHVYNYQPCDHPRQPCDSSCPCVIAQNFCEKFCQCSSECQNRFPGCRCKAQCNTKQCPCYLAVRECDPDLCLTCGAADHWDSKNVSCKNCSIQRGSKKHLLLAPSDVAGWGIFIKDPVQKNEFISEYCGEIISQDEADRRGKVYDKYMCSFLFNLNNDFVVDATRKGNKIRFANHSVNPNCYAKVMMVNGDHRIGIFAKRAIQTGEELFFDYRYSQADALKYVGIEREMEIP
Sequence of purified human, His-tagged PRC2 complex (O75530 whole entry): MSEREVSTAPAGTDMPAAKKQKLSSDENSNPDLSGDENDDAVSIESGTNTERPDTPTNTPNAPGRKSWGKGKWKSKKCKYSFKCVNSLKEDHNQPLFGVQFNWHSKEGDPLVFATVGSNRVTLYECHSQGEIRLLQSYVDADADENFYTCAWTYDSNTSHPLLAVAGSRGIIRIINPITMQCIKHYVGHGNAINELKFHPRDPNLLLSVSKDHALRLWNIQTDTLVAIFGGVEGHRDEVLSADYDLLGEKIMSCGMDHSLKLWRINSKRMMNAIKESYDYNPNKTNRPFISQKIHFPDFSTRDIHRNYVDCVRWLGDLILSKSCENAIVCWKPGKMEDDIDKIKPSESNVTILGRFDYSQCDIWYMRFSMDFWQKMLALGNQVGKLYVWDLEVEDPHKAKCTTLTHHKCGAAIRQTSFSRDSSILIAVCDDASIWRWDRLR
Sequence of purified human, His-tagged PRC2 complex (Q15022 whole entry partner): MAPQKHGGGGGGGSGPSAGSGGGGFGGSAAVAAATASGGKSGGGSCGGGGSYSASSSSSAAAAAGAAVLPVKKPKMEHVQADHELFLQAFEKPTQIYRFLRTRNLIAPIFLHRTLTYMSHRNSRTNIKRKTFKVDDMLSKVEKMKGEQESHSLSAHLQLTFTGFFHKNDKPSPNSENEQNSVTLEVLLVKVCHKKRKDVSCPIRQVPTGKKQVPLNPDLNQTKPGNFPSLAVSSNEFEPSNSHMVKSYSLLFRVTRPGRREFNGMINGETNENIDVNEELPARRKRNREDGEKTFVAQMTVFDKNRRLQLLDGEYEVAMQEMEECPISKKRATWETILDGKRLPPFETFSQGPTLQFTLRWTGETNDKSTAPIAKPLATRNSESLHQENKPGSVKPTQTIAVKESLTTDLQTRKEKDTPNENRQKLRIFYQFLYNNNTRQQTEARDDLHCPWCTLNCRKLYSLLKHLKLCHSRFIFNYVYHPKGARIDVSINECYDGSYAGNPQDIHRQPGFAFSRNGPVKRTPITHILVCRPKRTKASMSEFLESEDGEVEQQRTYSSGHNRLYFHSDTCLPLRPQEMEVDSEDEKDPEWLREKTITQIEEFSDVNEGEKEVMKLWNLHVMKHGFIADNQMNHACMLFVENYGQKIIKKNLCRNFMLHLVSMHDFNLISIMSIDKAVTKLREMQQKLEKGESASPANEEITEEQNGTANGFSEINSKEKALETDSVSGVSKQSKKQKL
Sequence of purified human, His-tagged PRC2 complex (Q6ZN18 whole entry partner): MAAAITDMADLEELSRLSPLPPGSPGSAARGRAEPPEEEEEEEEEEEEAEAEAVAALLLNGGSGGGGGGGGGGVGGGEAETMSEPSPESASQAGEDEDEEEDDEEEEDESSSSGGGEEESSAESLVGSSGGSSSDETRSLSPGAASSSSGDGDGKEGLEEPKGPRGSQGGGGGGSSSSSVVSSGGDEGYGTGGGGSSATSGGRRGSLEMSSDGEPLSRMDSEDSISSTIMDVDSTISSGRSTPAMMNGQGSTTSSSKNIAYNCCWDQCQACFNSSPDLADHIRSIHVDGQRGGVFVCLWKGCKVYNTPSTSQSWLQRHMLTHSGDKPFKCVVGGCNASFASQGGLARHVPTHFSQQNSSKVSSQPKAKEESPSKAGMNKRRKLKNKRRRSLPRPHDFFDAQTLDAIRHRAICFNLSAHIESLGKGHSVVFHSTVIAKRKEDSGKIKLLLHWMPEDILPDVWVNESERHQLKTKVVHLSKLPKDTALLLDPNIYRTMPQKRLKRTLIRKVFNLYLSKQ
Sequence of purified human, His-tagged PRC2 complex (Q09028 whole entry partner): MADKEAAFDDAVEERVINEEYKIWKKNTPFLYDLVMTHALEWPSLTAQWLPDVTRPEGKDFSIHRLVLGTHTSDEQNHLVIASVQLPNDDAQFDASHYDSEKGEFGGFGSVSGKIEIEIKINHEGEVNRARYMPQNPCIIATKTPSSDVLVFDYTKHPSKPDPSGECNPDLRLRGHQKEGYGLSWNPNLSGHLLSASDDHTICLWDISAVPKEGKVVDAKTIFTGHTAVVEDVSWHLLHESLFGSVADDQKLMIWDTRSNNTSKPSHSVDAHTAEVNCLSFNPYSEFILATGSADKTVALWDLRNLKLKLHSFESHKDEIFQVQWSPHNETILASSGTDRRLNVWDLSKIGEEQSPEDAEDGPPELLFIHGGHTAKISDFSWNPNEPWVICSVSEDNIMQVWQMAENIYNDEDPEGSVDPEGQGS

One may read the IC50 as the concentration that gives 50% inhibition. High values mean lower potency, low ones higher potency. With `Cc1cn(-c2cnc(NCc3c(F)ccc4c3CCO4)n3cc(C#N)nc23)cn1` [Example 139, 5-(((5-fluoro-2,3-dihydrobenzofuran-4-yl)methyl)amino)-8-(4-methyl-1H-imidazol-1-yl)imidazo[1,2-c]pyrimidine-2-carbonitrile], in the assay with Karpas 422 cells, the IC50 is at most 250 nM.

In assay [1], `Cc1cn(-c2cnc(NCc3c(F)ccc4c3CCO4)n3cc(C(=O)O)nc23)cn1` [Example 4, 5-(((5-fluoro-2,3-dihydrobenzofuran-4-yl)methyl)amino)-8-(4-methyl-1H-imidazol-1-yl)imidazo[1,2-c]pyrimidine-2-carboxylic acid] registered a concentration for half-maximal inhibition (IC50) of under 100 nM.

The molecule `CC(C)n1cc(-c2cnc(NCc3c(F)ccc4c3CCO4)n3cc(C#N)nc23)cn1` [Example 99, 5-(((5-fluoro-2,3-dihydrobenzofuran-4-yl)methyl)amino)-8-(1-isopropyl-1H-pyrazol-4-yl)imidazo[1,2-c]pyrimidine-2-carbonitrile] came in with an IC50 in assay [1] of under 100 nM.

`CN(C)Cc1ncc(-c2cnc(NCc3c(F)ccc4c3CCO4)n3cc(C#N)nc23)cn1` [Example 216, 8-(2-((dimethylamino)methyl)pyrimidin-5-yl)-5-(((5-fluoro-2,3-dihydrobenzofuran-4-yl)methyl)amino)imidazo[1,2-c]pyrimidine-2-carbonitrile] displayed an IC50 in assay [1] of under 100 nM.

In the case of `Cc1c(-c2cnc(NCc3c(F)ccc4c3CCO4)n3cc(C(=O)O)nc23)cnn1C(C)C` [Example 8, 5-(((5-fluoro-2,3-dihydrobenzofuran-4-yl)methyl)amino)-8-(1-isopropyl-5-methyl-1H-pyrazol-4-yl)imidazo[1,2-c]pyrimidine-2-carboxylic acid], the IC50 in assay [1] is under 100 nM.

In turn, `N#Cc1cncc(-c2cnc(NCc3c(F)ccc4c3CCO4)n3cc(C#N)nc23)c1` [Example 95, 8-(5-cyanopyridin-3-yl)-5-(((5-fluoro-2,3-dihydrobenzofuran-4-yl)methyl)amino)imidazo[1,2-c]pyrimidine-2-carbonitrile] yielded an IC50 in assay [1] of under 100 nM.

Take `COc1cc(-c2cnc(NCc3c(F)ccc4c3CCO4)n3cc(C#N)nc23)c(OC)cn1` [Example 125, 8-(2,5-dimethoxypyridin-4-yl)-5-(((5-fluoro-2,3-dihydrobenzofuran-4-yl)methyl)amino)imidazo[1,2-c]pyrimidine-2-carbonitrile]: in assay [1], the IC50 is under 100 nM.

The molecule `N#Cc1cn2c(NCc3c(F)ccc4c3CCO4)ncc(-c3ccnn3CCO)c2n1` [Example 231, 5-(((5-fluoro-2,3-dihydrobenzofuran-4-yl)methyl)amino)-8-(1-(2-hydroxyethyl)-1H-pyrazol-5-yl)imidazo[1,2-c]pyrimidine-2-carbonitrile] displayed an IC50 in assay [1] of 100 to 500 nM.

As to `CN(C)CCn1cc(-c2cnc(NCc3c(F)ccc4c3CCO4)n3cc(C#N)nc23)cn1` [Example 102, 8-(1-(2-(dimethylamino)ethyl)-1H-pyrazol-4-yl)-5-(((5-fluoro-2,3-dihydrobenzofuran-4-yl)methyl)amino)imidazo[1,2-c]pyrimidine-2-carbonitrile], in assay [1], the IC50 lay within 100 to 500 nM.

In assay [1], `CN(C)C(=O)c1ccc(-c2cnc(NCc3c(F)ccc4c3CCO4)n3cc(C#N)nc23)c(Cl)c1F` [Example 34, 3-chloro-4-(2-cyano-5-(((5-fluoro-2,3-dlhydrobenzofuran-4-yl)methyl)amino)imidazo[1,2-c]pyrimidin-8-yl)-2-fluoro-N,N-dimethylbenzamide] came in with an IC50 of under 100 nM.

In the case of `N#Cc1cn2c(NCc3c(F)ccc4c3CCO4)ncc(-c3cnn(Cc4cccnc4)c3)c2n1` [Example 101, 5-(((5-fluoro-2,3-dihydrobenzofuran-4-yl)methyl)amino)-8-(1-(pyridin-3-ylmethyl)-1H-pyrazol-4-yl)imidazo[1,2-c]pyrimidine-2-carbonitrile], the IC50 in assay [1] lay in the range of 100 to 500 nM.

Turning to `Cc1cc(S(C)(=O)=O)ccc1-c1cnc(NCc2c(F)ccc3c2CCO3)n2cc(C#N)nc12` [Example 87, 5-(((5-fluoro-2,3-dihydrobenzofuran-4-yl)methyl)amino)-8-(2-methyl-4-(methylsulfonyl)phenyl)imidazo[1,2-c]pyrimidine-2-carbonitrile], the IC50 in the assay on Karpas 422 cells is at most 250 nM.

For `Cc1n[nH]cc1-c1cnc(NCc2c(F)ccc3c2CCO3)n2cc(C#N)nc12` [Example 79, 5-(((5-fluoro-2,3-dihydrobenzofuran-4-yl)methyl)amino)-8-(3-methyl-1H-pyrazol-4-yl)imidazo[1,2-c]pyrimidine-2-carbonitrile], the IC50 in assay [1] was under 100 nM.

The molecule `N#Cc1cn2c(NCc3c(F)ccc4c3CCO4)ncc(-c3ccc(C(F)(F)F)nc3)c2n1` [Example 126, 5-(((5-fluoro-2,3-dihydrobenzofuran-4-yl)methyl)amino)-8-(6-(trifluoromethyl)pyridin-3-yl)imidazo[1,2-c]pyrimidine-2-carbonitrile] displayed an IC50 in assay [1] of 100 to 500 nM.

In turn, `Cc1cc(-c2cnc(NCc3c(F)ccc4c3C(O)CO4)n3cc(C#N)nc23)n(C)n1` (centres unmarked) [Example 155, 8-(1,3-dimethyl-1H-pyrazol-5-yl)-5-(((5-fluoro-3-hydroxy-2,3-dihydrobenzofuran-4-yl)methyl)amino)imidazo[1,2-c]pyrimidine-2-carbonitrile] registered an IC50 in assay [1] of under 100 nM.

In assay [1], `Cc1cc(-c2cnc(NCc3c(F)ccc4occc34)n3cc(C(N)=O)nc23)n(C)n1` [Example 18, 8-(1,3-dimethyl-1H-pyrazol-5-yl)-5-(((5-fluorobenzofuran-4-yl)methyl)amino)imidazo[1,2-c]pyrimidine-2-carboxamide] gave an IC50 of under 100 nM.

As to `CC(=O)Nc1cc(-c2cnc(NCc3c(F)ccc4c3CCO4)n3cc(C#N)nc23)ccn1` [Example 131, N-(4-(2-cyano-5-(((5-fluoro-2,3-dihydrobenzofuran-4-yl)methyl)amino)imidazo[1,2-c]pyrimidin-8-yl)pyridin-2-yl)acetamide], the IC50 in assay [1] is under 100 nM.

For `Cc1cc(-c2cnc(NCc3cccc4c3OCO4)n3cc(C#N)nc23)n(C)n1` [Example 27, 5-((benzo[d][1,3]dioxol-4-ylmethyl)amino)-8-(1,3-dimethyl-1H-pyrazol-5-yl)imidazo[1,2-c]pyrimidine-2-carbonitrile], the IC50 in assay [1] is over 500 nM.

Molecule `Cc1cc(-c2cnc(NCc3cccc4c3CCO4)n3cc(C(=O)O)nc23)n(C)n1` [Example 10, 5-(((2,3-dihydrobenzofuran-4-yl)methyl)amino)-8-(1,3-dimethyl-1H-pyrazol-5-yl)imidazo[1,2-c]pyrimidine-2-carboxylic acid] showed an IC50 in assay [1] of under 100 nM.

On to `N#Cc1cn2c(NCc3c(F)ccc4c3CCO4)ncc(-c3ccc(CN4CCC(F)(F)C4)cc3)c2n1` [Example 55, 8-(4-((3,3-difluoropyrrolidin-1-yl)methyl)phenyl)-5-(((5-fluoro-2,3-dihydrobenzofuran-4-yl)methyl)amino)imidazo[1,2-c]pyrimidine-2-carbonitrile], for which, in assay [1], the IC50 was under 100 nM.

In the case of “5-(((5-fluoro-2,3-dihydrobenzofuran-4-yl)methyl)amino)-8-(4-methyl-1H-imidazol-1-yl)imidazo[1,2-c]pyrimidine-2-carboxamide [Example 17]”, in assay [1], the IC50 lay within 100 to 500 nM.

In the case of `CN(C)CCCn1cc(-c2cnc(NCc3c(F)ccc4c3CCO4)n3cc(C#N)nc23)cn1` [Example 103, 8-(1-(3-(dimethylamino)propyl)-1H-pyrazol-4-yl)-5-(((5-fluoro-2,3-dihydrobenzofuran-4-yl)methyl)amino)imidazo[1,2-c]pyrimidine-2-carbonitrile], the IC50 in assay [1] was 100 to 500 nM.

For `CN(C)C(=O)c1cc(Cl)c(-c2cnc(NCc3c(F)ccc4c3CCO4)n3cc(C#N)nc23)cc1F` [Example 35, 5-chloro-4-(2-cyano-5-(((5-fluoro-2,3-dlhydrobenzofuran-4-yl)methyl)amino)imidazo[1,2-c]pyrimidin-8-yl)-2-fluoro-N,N-dimethylbenzamide], the IC50 in assay [1] is under 100 nM.
